Experimental data from ChEMBL document CHEMBL1201862, “PubChem BioAssay data set” (2004).
Activity calls are given as the source filed them.

Columns and labels:
[1] = biological target: T1, DNA repair protein RAD52 homolog (Homo sapiens, UniProt P43351); format: functional, biochemical
T1 sequence (P43351 whole entry): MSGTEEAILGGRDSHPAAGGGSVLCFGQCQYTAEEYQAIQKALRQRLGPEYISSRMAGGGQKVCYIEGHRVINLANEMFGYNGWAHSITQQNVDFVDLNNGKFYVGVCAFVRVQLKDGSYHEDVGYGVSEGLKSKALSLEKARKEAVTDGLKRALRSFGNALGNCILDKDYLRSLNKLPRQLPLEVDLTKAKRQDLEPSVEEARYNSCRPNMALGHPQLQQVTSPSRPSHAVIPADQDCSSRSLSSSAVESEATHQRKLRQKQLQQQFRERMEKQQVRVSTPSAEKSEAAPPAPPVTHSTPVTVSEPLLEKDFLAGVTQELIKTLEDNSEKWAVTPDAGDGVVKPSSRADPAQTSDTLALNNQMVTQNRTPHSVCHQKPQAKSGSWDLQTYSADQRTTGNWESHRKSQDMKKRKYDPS

[2] = biological target: Polyadenylate-binding protein 1 (Homo sapiens, UniProt P11940); assay: PABP1 MLLE–PAM2 binding inhibitor potency, dose response, biochemical, fluorescence polarization, FITC-PAM2 peptide (AID 602259); format: functional; conditions: read-out: IC50_Mean
[3] = biological target: T2, Microphthalmia-associated transcription factor (Homo sapiens, UniProt O75030); assay: TRPM1 promoter luciferase signal decrease, dose response, MITF inhibitor project, cell-based, SK-MEL-5, cherry-picked, set 3 (AID 493073); format: functional
T2 sequence (O75030 whole entry): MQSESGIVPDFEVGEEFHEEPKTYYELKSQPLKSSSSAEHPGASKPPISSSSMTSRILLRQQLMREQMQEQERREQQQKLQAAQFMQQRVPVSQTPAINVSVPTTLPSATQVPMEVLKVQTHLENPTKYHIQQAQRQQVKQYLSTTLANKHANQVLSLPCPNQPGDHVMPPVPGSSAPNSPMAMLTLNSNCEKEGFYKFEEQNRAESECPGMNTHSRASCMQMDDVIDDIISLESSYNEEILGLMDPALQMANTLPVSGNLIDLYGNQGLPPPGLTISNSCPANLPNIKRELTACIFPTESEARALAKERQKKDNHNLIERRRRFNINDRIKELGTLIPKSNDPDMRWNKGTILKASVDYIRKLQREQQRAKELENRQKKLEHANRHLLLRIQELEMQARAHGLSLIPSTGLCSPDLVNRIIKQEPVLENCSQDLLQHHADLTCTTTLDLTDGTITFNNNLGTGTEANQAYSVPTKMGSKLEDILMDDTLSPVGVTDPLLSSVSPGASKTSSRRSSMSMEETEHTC

Chain of Polyadenylate-binding protein 1 (P11940 whole entry): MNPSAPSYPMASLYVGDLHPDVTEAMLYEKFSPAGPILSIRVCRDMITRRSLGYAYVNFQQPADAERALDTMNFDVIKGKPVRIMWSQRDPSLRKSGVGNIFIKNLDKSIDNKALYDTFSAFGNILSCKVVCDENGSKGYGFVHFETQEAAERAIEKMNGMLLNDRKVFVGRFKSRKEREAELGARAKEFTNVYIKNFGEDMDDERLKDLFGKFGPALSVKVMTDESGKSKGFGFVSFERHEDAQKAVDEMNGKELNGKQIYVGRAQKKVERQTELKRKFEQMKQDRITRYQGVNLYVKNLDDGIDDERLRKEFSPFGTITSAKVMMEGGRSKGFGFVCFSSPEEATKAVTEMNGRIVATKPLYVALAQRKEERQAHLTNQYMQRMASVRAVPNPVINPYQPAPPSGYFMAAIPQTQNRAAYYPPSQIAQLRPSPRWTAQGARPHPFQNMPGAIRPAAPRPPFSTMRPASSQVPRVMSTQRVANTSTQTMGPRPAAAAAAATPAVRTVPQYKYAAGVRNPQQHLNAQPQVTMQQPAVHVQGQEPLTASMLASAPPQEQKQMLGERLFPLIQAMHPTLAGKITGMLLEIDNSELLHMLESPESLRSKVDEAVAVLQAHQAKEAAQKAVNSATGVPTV

Row | Structure (SMILES) | AC50 [1] | IC50 [2] | AC50 [3]
1 | COc1cc2c(cc1OC)-c1c(OC)c(OC)cc3c1[C@H](C2)N(C)CC3 | 2.86 µM (active) | – | –
2 | COC1=C(c2ccccc2)C(=O)c2ccccc2C1=O | – | > 66 µM (inactive) | 9.05 µM (active)
